Experimental data: patent US20240140957A1, “BRIDGED COMPOUNDS AS KRAS G12D INHIBITOR AND DEGRADER AND THE USE THEREOF” (BeiGene Switzerland GmbH, priority 2021, published 2024)

Target: GDP-loaded KRAS G12D (Homo sapiens, UniProt P01116, G12D)
Assay: KRAS G12D Probe Displacement Assay
Type: binding
Details: KRAS G12D 0.5 nM, biotinylated probe 2 4 nM; Table 6 letters; read-out: KRAS G12D Probe Displacement Assay IC50 (class)

GDP-loaded KRAS G12D, sequence (P01116 1-188 isoform P01116-2 G12D): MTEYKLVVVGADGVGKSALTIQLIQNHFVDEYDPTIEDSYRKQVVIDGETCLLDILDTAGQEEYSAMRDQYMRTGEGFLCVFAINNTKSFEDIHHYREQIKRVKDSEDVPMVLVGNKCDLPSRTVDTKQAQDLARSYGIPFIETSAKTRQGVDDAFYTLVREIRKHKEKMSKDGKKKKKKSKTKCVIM

IC50 [µM] | Compound
< 0.05 | Nc1nc2c(-c3c(C(F)(F)F)cc4c(N5CC6CCC(C5)N6)nc(OCCC5(CCO)COC5)nc4c3F)ccc(F)c2s1 [Example E172, 2-(3-(2-((7-(2-amino-7-fluorobenzo[d]thiazol-4-yl)-4-(3,8-diazabicyclo[3.2.1]octan-3-yl)-8-fluoro-6-(trifluoromethyl)quinazolin-2-yl)oxy)ethyl)oxetan-3-yl) ethan-1-ol]
< 0.05 | Nc1nc2c(-c3c(C(F)(F)F)cc4c(N5CC6CCC(C5)N6)nc(OCC5CCCCO5)nc4c3F)ccc(F)c2s1 (stereo not drawn) [Example E146, 4-(4-(3,8-diazabicyclo[3.2.1]octan-3-yl)-8-fluoro-2-((tetrahydro-2H-pyran-2-yl)methoxy)-6-(trifluoromethyl)quinazolin-7-yl)-7-fluorobenzo[d]thiazol-2-amine]
< 0.05 | Nc1nc2c(-c3c(C(F)(F)F)cc4c(N5CC6CCC(C5)N6)nc(OCC5COC(=O)N5)nc4c3F)ccc(F)c2s1 (stereo not drawn) [Example E170, 4-(((7-(2-amino-7-fluorobenzo[d]thiazol-4-yl)-4-(3,8-diazabicyclo [3.2.1]octan-3-yl)-8-fluoro-6-(trifluoromethyl)quinazolin-2-yl)oxy)methyl)oxazolidin-2-one]
> 1 | Cn1nc(N)c(-c2cc3nc(OC[C@@]45CCCN4C[C@H](F)C5)nc(N4CC5CCC(C4)N5)c3cc2Cl)c1C1CC1 [Example E135, 4-(4-(3,8-diazabicyclo[3.2.1]octan-3-yl)-6-chloro-2-(((2R,7aS)-2-fluorotetrahydro-1H-pyrrolizin-7a(5H)-yl)methoxy)quinazolin-7-yl)-5-cyclopropyl-1-methyl-1H-pyrazol-3-amine]
< 0.05 | Cc1cc(N)nc(-c2c(Cl)cc3c(N4CC5CCC(C4)N5)nc(OCC4(C)CCC(=O)N4)nc3c2F)c1C(F)(F)F (stereo not drawn) [Example E207, 5-(((7-(6-amino-4-methyl-3-(trifluoromethyl)pyridin-2-yl)-4-(3,8-diazabicyclo[3.2.1]octan-3-yl)-6-chloro-8-fluoroquinazolin-2-yl)oxy)methyl)-5-methylpyrrolidin-2-one]
< 0.05 | Cc1cc(N)nc(-c2c(Cl)cc3c(N4CC5CCC(C4)N5)nc(OCC4CS(=O)(=O)C4)nc3c2F)c1C(F)(F)F [Example E228, 3-(((7-(6-amino-4-methyl-3-(trifluoromethyl)pyridin-2-yl)-4-(3,8-diazabicyclo[3.2.1]octan-3-yl)-6-chloro-8-fluoroquinazolin-2-yl)oxy)methyl)thietane 1,1-dioxide]
< 0.05 | CC12CC(COc3nc(N4CC5CCC(C4)N5)c4cc(C(F)(F)F)c(-c5ccc(F)c6sc(N)c(C#N)c56)c(F)c4n3)(CO1)C2 [Example E235, 4-(4-(3,8-diazabicyclo[3.2.1]octan-3-yl)-8-fluoro-2-((1-methyl-2-oxabicyclo[2.1.1]hexan-4-yl)methoxy)-6-(trifluoromethyl)quinazolin-7-yl)-2-amino-7-fluoro benzo[b]thiophene-3-carbonitrile]
< 0.05 | Nc1nc2c(-c3c(C(F)(F)F)cc4c(N5C6CNCC5COC6)nc(OCC56CC(F)CN5CC(F)C6)nc4c3F)ccc(F)c2s1 (stereo not drawn) [Example E139, 4-(4-(3-oxa-7,9-diazabicyclo[3.3.1]nonan-9-yl)-2-((2,6-difluorotetrahydro-1H-pyrrolizin-7a(5H)-yl)methoxy)-8-fluoro-6-(trifluoromethyl)quinazolin-7-yl)-7-fluorobenzo[d]thiazol-2-amine]
< 0.05 | Nc1nc2c(-c3c(C(F)(F)F)cc4c(N5CC6CCC(C5)N6)nc(OCC5C6COCC65)nc4c3F)ccc(F)c2s1 (stereo not drawn) [Example E210, 4-(2-((3-oxabicyclo[3.1.0]hexan-6-yl)methoxy)-4-(3,8-diazabicyclo[3.2.1]octan-3-yl)-8-fluoro-6-(trifluoromethyl)quinazolin-7-yl)-7-fluorobenzo[d]thiazol-2-amine]
< 0.05 | C#Cc1cc(N)nc(-c2c(Cl)cc3c(N4C5CCC4CNC5)nc(OC[C@@]45CCCN4C[C@H](F)C5)nc3c2F)c1C(F)(F)F [Example E113, 6-(4-(3,8-diazabicyclo[3.2.1]octan-8-yl)-6-chloro-8-fluoro-2-(((2R,7aS)-2-fluorotetrahydro-1H-pyrrolizin-7a(5H)-yl)methoxy)quinazolin-7-yl)-4-ethynyl-5-(trifluoromethyl)pyridin-2-amine]
< 0.05 | Cc1cc(N)nc(-c2c(Cl)cc3c(N4CC5CCC(C4)N5)nc(OCC45CCCN4C(CF)CC5)nc3c2F)c1C(F)(F)F (stereo not drawn) [Example E133, 6-(4-(3,8-diazabicyclo[3.2.1]octan-3-yl)-6-chloro-8-fluoro-2-((3-(fluoromethyl)tetrahydro-1H-pyrrolizin-7a(5H)-yl)methoxy)quinazolin-7-yl)-4-methyl-5-(trifluoromethyl)pyridin-2-amine]
0.1 to 1 | COC[C@@]1(COc2nc(N3C4CNCC3COC4)c3cc(F)c(-c4nc(N)cc(C)c4C(F)(F)F)c(F)c3n2)C[C@@H](F)CN1C [Example E137, 6-(4-(3-oxa-7,9-diazabicyclo[3.3.1]nonan-9-yl)-6,8-difluoro-2-(((2R,4R)-4-fluoro-2-(methoxymethyl)-1-methylpyrrolidin-2-yl)methoxy)quinazolin-7-yl)-4-methyl-5-(trifluoromethyl)pyridin-2-amine]
< 0.05 | Oc1cc(Cl)c(C2CC2)c(-c2c(Cl)cc3c(N4CC5CCC(C4)N5)nc(OC[C@@]45CCCN4C[C@H](F)C5)nc3c2F)c1 [Example E123, 3-(4-(3,8-diazabicyclo[3.2.1]octan-3-yl)-6-chloro-8-fluoro-2-(((2R,7aS)-2-fluorotetrahydro-1H-pyrrolizin-7a(5H)-yl)methoxy)quinazolin-7-yl)-5-chloro-4-cyclopropylphenol]
< 0.05 | C[C@@H](CN1C2CCC1CC(C#N)C2)Oc1nc(N2CC3CCC(C2)N3)c2cc(Cl)c(-c3ccc(F)c4sc(N)c(C#N)c34)c(F)c2n1 (stereo partly drawn) [Example E115, 8-((2S)-2-((7-(2-amino-3-cyano-7-fluorobenzo[b]thiophen-4-yl)-4-(3,8-diazabicyclo[3.2.1]octan-3-yl)-6-chloro-8-fluoroquinazolin-2-yl)oxy)propyl)-8-azabicyclo [3.2.1]octane-3-carbonitrile]
< 0.05 | Cc1cc(N)nc(-c2c(C(F)F)cc3c(N4CC5CCC(C4)N5)nc(OC[C@@]45CCCN4C[C@H](F)C5)nc3c2F)c1C(F)(F)F [Example E100, 6-(4-(3,8-diazabicyclo[3.2.1]octan-3-yl)-6-(difluoromethyl)-8-fluoro-2-(((2R,7aS)-2-fluorotetrahydro-1H-pyrrolizin-7a(5H)-yl)methoxy)quinazolin-7-yl)-4-methyl-5-(trifluoromethyl)pyridin-2-amine]
< 0.05 | Nc1nc2c(-c3c(C(F)(F)F)cc4c(N5CC6CCC(C5)N6)nc(OC5CC(O)C5)nc4c3F)ccc(F)c2s1 (stereo not drawn) [Example E177, 3-((7-(2-amino-7-fluorobenzo[d]thiazol-4-yl)-4-(3,8-diazabicyclo [3.2.1]octan-3-yl)-8-fluoro-6-(trifluoromethyl)quinazolin-2-yl)oxy)cyclobutan-1-ol]
< 0.05 | Nc1nc2c(-c3c(C(F)(F)F)cc4c(N5CC6CCC(C5)N6)nc(OC5CCOCC5F)nc4c3F)ccc(F)c2s1 (stereo not drawn) [Example E159, 4-(4-(3,8-diazabicyclo[3.2.1]octan-3-yl)-8-fluoro-2-((3-fluorotetra hydro-2H-pyran-4-yl)oxy)-6-(trifluoromethyl)quinazolin-7-yl)-7-fluorobenzo[d]thiazol-2-amine]
< 0.05 | C#Cc1cc(N)nc(-c2c(Cl)cc3c(N4CC5CCC(C4)N5)nc(OC[C@@]45CCCN4C[C@H](F)C5)nc3c2F)c1C(F)(F)F [Example E108, 6-(4-(3,8-diazabicyclo[3.2.1]octan-3-yl)-6-chloro-8-fluoro-2-(((2R,7aS)-2-fluorotetrahydro-1H-pyrrolizin-7a(5H)-yl)methoxy)quinazolin-7-yl)-4-ethynyl-5-(trifluoromethyl)pyridin-2-aminp]
< 0.05 | Cc1cc(N)nc(-c2c(Cl)cc3c(N4CC5CCC(C4)N5)nc(OCC4(CO)CC4)nc3c2F)c1C(F)(F)F [Example E197, (1-(((7-(6-amino-4-methyl-3-(trifluoromethyl)pyridin-2-yl)-4-(3,8-diazabicyclo[3.2.1]octan-3-yl)-6-chloro-8-fluoroquinazolin-2-yl)oxy)methyl)cyclopropyl) methanol]
< 0.05 | N#CC1(COc2nc(N3CC4CCC(C3)N4)c3cc(C(F)(F)F)c(-c4ccc(F)c5sc(N)nc45)c(F)c3n2)CC1 [Example E147, 1-(((7-(2-amino-7-fluorobenzo[d]thiazol-4-yl)-4-(3,8-diazabicyclo [3.2.1]octan-3-yl)-8-fluoro-6-(trifluoromethyl)quinazolin-2-yl)oxy)methyl)cyclopropane-1-carbonitrile]
< 0.05 | Nc1nc2c(-c3c(C(F)(F)F)cc4c(N5CC6CCCC(C5)N6)nc(OC[C@@]56CCCN5C[C@H](F)C6)nc4c3F)ccc(F)c2s1 [Example E90, 4-(4-(3,9-diazabicyclo[3.3.1]nonan-3-yl)-8-fluoro-2-(((2R,7aS)-2-fluorotetrahydro-1H-pyrrolizin-7a(5H)-yl)methoxy)-6-(trifluoromethyl)quinazolin-7-yl)-7-fluorobenzo[d]thiazol-2-amine]
< 0.05 | Cc1cc(N)nc(-c2c(C#N)cc3c(N4CC5CCC(C4)N5)nc(OC[C@@]45CCCN4C[C@H](F)C5)nc3c2F)c1C(F)(F)F [Example E119, 7-(6-amino-4-methyl-3-(trifluoromethyl)pyridin-2-yl)-4-(3,8-diazabicyclo [3.2.1]octan-3-yl)-8-fluoro-2-(((2R,7aS)-2-fluorotetrahydro-1H-pyrrolizin-7a(5H)-yl)methoxy) quinazoline-6-carbonitrile]
< 0.05 | Nc1nc2c(-c3c(C(F)(F)F)cc4c(N5CC6CCC(C5)N6)nc(OCC5(CO)CC5)nc4c3F)ccc(F)c2s1 [Example E149, (1-(((7-(2-amino-7-fluorobenzo[d]thiazol-4-yl)-4-(3,8-diazabicyclo[3.2.1]octan-3-yl)-8-fluoro-6-(trifluoromethyl)quinazolin-2-yl)oxy)methyl)cyclopropyl) methanol]

Compound | IC50 [µM]
Nc1nc2c(-c3c(C(F)(F)F)cc4c(N5C6CNCC5COC6)nc(OC[C@@]56CCCN5C[C@H](F)C6)nc4c3F)ccc(F)c2s1 [Example E98] | < 0.05
